Experimental findings from ChEMBL document CHEMBL1132291, “Synthesis and serotonergic activity of substituted 2, N-benzylcarboxamido-5-(2-ethyl-1-dioxoimidazolidinyl)-N, N-dimethyltryptamine derivatives: novel antagonists for the vascular 5-HT(1B)-like receptor” (J Med Chem, 1999) are described below.

For assay [1], the system named is 5-hydroxytryptamine receptor 1B (Oryctolagus cuniculus). Nature of the assay: Binding affinity against vascular 5-hydroxytryptamine 1B receptor, measured using ring preparations of rabbit saphenous vein (RbSV).
The test system of assay [2] is 5-hydroxytryptamine receptor 2A (Oryctolagus cuniculus). Nature of the assay: Binding affinity for 5-hydroxytryptamine 2A receptor of rabbit aorta ring preparations.
In assay [3] the target is T1, 5-hydroxytryptamine receptor 1A (Rattus norvegicus, UniProt P19327).
T1 sequence (P19327 whole entry): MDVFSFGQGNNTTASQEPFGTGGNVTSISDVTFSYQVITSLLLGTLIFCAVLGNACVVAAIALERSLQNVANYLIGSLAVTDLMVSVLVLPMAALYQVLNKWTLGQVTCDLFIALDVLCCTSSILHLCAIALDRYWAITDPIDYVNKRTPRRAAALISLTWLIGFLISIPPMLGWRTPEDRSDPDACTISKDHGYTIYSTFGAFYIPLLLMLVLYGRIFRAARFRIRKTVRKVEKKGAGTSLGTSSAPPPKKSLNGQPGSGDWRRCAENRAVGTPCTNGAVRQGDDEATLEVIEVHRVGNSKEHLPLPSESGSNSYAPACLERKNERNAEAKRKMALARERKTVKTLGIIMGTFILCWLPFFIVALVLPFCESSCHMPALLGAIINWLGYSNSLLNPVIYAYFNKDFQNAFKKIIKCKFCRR
The assay can be described thus: Binding affinity against 5-hydroxytryptamine 1A receptor in rat cortex homogenates. The class given is tissue-based.

Assay [4] concerns Adrenergic receptor alpha-1 (Oryctolagus cuniculus). Nature of the assay: Alpha-1 adrenergic receptor affinity using ring preparations of rabbit thoracic aorta (RbTA).
The target in assay [5] is T2, 5-hydroxytryptamine receptor 2C (Rattus norvegicus, UniProt P08909).
T2 sequence (P08909 whole entry): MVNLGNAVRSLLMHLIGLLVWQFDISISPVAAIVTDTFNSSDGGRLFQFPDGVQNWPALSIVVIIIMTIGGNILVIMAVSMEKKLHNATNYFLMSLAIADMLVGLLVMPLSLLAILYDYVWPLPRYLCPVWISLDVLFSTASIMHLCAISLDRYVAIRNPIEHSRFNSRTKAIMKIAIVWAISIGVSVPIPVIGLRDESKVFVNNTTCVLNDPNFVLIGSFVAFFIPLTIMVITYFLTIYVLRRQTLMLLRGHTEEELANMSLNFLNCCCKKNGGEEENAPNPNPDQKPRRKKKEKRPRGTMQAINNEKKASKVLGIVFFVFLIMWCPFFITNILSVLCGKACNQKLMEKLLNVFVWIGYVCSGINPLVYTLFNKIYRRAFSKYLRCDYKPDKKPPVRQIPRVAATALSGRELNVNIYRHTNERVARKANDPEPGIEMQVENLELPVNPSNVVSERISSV
The assay can be described thus: Binding affinity against 5-hydroxytryptamine 2C receptor in rat cortex homogenates. The class given is tissue-based.

Assay [6] has as its system 5-hydroxytryptamine receptor 1B (Oryctolagus cuniculus). The assay can be described thus: The vascular 5-hydroxytryptamine 1B receptor affinity was assessed using ring preparations of rabbit saphenous vein(RbSV).
For assay [7] the test system is unchanged. Nature of the assay: The vascular 5-hydroxytryptamine 1B receptor affinity was assessed using ring preparations of rabbit saphenous vein (RbSV).

As a reminder, the pKB is −log10 of the KB, conventionally taken in molar units. Higher therefore signals a low KB. By Ki is commonly meant the dissociation constant of the complex between target and ligand, obtained from inhibition or displacement.

Structures are written as SMILES. Bounds are passed on as bounds.

`CCCCNC(=O)c1[nH]c2ccc(CCN3C(=O)NC(C)(C)C3=O)cc2c1CCN(C)C`: the pKB in assay [1] was 5.47; in assay [2] it was less than 5.
Take `CN(C)CCc1c(C(=O)NCc2ccccc2)[nH]c2ccc(CCN3C(=O)CNC3=O)cc12`: the Ki in assay [3] is 67.6 µM; in assay [5], 1.91 µM. In addition, the pKB is 7.36 in assay [1], 5.77 in assay [4] and 6.09 in assay [2].
Consider `CCOC(=O)c1[nH]c2ccc(CCN3C(=O)CNC3=O)cc2c1CCN(C)C`, for which the pKB in assay [1] was 7.42; in assay [4], 5.43; in assay [2], less than 5.
Consider `CN(C)CCc1c(C(=O)NCc2ccccc2N)[nH]c2ccc(CCN3C(=O)NC(C)(C)C3=O)cc12`, for which the pKB in assay [1] was 6.72; in assay [4], 4.79.
The corresponding values for `CN(C)CCc1c(C(=O)NCc2ccc(NS(C)(=O)=O)cc2)[nH]c2ccc(CCN3C(=O)NC(C)(C)C3=O)cc12` are 5.65 and less than 4.5.
Turning to `COc1ccc(CNC(=O)c2[nH]c3ccc(CCN4C(=O)NC(C)(C)C4=O)cc3c2CCN(C)C)cc1`, the pKB in assay [6] was found to be 6.54; in assay [4], 4.73.
In the case of `CN(C)CCc1c(C(=O)NCc2ccc(N)cc2)[nH]c2ccc(CCN3C(=O)NC(C)(C)C3=O)cc12`, the values for the pKB in assay [1] and in assay [4] were 6.19 and 4.52, respectively.
As for `CC(NC(=O)c1[nH]c2ccc(CCN3C(=O)NC(C)(C)C3=O)cc2c1CCN(C)C)c1ccccc1` (stereo unspecified), the pKB was found to be 5.5 in assay [1], 4.65 in assay [4] and 5.59 in assay [2].
In the case of `CC(=O)Nc1cccc(CNC(=O)c2[nH]c3ccc(CCN4C(=O)NC(C)(C)C4=O)cc3c2CCN(C)C)c1`, the negative logarithm of the KB (pKB) turned out to be 5.68 in assay [1] and 4.5 in assay [4].
As for `CN(C)CCc1c(C(=O)NCc2ccccc2)[nH]c2ccc(CCN3C(=O)NC(C)(C)C3=O)cc12`, the Ki in assay [3] is 14.8 µM; in assay [5], 2.19 µM. Moreover, the pKB in assay [1] was determined as 7.09; in assay [4], 5.2; in assay [2] it was 5.6.
As for `CN(C)CCc1c(C(=O)NCc2ccccc2N)[nH]c2ccc(CCN3C(=O)CNC3=O)cc12`, the pKB in assay [1] amounted to 6.67; in assay [4], 5.73.
Consider `CN(C)CCc1c(C(N)=O)[nH]c2ccc(CCN3C(=O)CNC3=O)cc12`, for which the pKB in assay [1] and in assay [2] was less than 5 throughout.
In assay [1], `CN(C)CCc1c(C(=O)NCc2cccc3ccccc23)[nH]c2ccc(CCN3C(=O)NC(C)(C)C3=O)cc12` gave a pKB of 5.5.
Turning to `CN(C)CCc1c(C(=O)NCc2ccccc2)[nH]c2ccc(CCN3C(=O)NC4(CCCC4)C3=O)cc12`, the values for the negative-log KB (pKB) in assay [1] and in assay [4] were 7.2 and 5.48, respectively.
The matching figures for `CN(C)CCc1c(C(=O)NCc2ccc(F)cc2)[nH]c2ccc(CCN3C(=O)NC(C)(C)C3=O)cc12`: 7.3 and 5.46.
For the molecule `CN(C)CCc1c(C(=O)N(C)C)[nH]c2ccc(CCN3C(=O)CNC3=O)cc12`, the pKB in assay [1] and in assay [2] was less than 5 each time.
In the case of `C#CCNC(=O)c1[nH]c2ccc(CCN3C(=O)NC(C)(C)C3=O)cc2c1CCN(C)C`, the results for the pKB in assay [1] and in assay [4] were 5.44 and 4.62, respectively.
The matching figures for `CN(C)CCc1c(C(=O)NCc2ccc(C(F)(F)F)cc2)[nH]c2ccc(CCN3C(=O)NC(C)(C)C3=O)cc12`: 6.2 and less than 5.
As to `CN(C)CCc1c(C(=O)NCc2ccccc2)[nH]c2ccc(CCN3C(=O)NC(c4ccccc4)(c4ccccc4)C3=O)cc12`, the pKB in assay [1] worked out at 6.44; in assay [4], 5.
The matching figures for `CN(C)CCc1c(C(=O)NCc2ccc(-c3ccccc3)cc2)[nH]c2ccc(CCN3C(=O)NC(C)(C)C3=O)cc12`: 5.77 and 5.
The matching figures for `CONC(=O)c1[nH]c2ccc(CCN3C(=O)NC(C)(C)C3=O)cc2c1CCN(C)C`: 5.4 and less than 4.5.
`CCCCNC(=O)c1[nH]c2ccc(CCN3C(=O)CNC3=O)cc2c1CCN(C)C`: the negative logarithm of the KB (pKB) in assay [1] is 5.94; in assay [2], 5.2.
Turning to `CN(C)CCc1c(C(=O)NCc2ccccc2)[nH]c2ccc(CCN3C(=O)N(C)C(C)(c4ccccc4)C3=O)cc12` (stereo unspecified), the values for the pKB in assay [1] and in assay [4] were 7.19 and 5.5, respectively.
With `CN(C)CCc1c(C(=O)NCc2ccccc2)[nH]c2ccc(CCN3C(=O)NC(C)(c4ccccc4)C3=O)cc12` (stereo unspecified), the pKB was determined as 7.15 in assay [1] and 5.27 in assay [4].
The corresponding values for `CN(C)CCc1c(C(=O)NN)[nH]c2ccc(CCN3C(=O)NC(C)(C)C3=O)cc12` are 5.48 and less than 4.5.
The corresponding values for `CN(C)CCc1c(C(=O)Nc2ccccc2)[nH]c2ccc(CCN3C(=O)NC(C)(C)C3=O)cc12` are 5.21 and 4.86.
The corresponding values for `CN(C)CCc1c(C(=O)NCc2ccc(Cl)c(Cl)c2)[nH]c2ccc(CCN3C(=O)NC(C)(C)C3=O)cc12` are 6.5 and 5.
For `CN(C)CCc1c(C(=O)NCc2ccccc2N)[nH]c2ccc(CCN3C(=O)N(C)C(C)(c4ccccc4)C3=O)cc12` (stereo unspecified), the negative logarithm of the KB (pKB) stood at 6.64 in assay [1] and 4.78 in assay [4].
Turning to `CN(C)CCc1c(C(=O)NCc2ccccc2)[nH]c2ccc(CCN3C(=O)C4CCCN4C3=O)cc12` (stereo unspecified), the pKB in assay [1] amounted to 6.66; in assay [4] it was 5.31.
On to `CN(C)CCc1c(C(=O)NCCc2ccccc2)[nH]c2ccc(CCN3C(=O)NC(C)(C)C3=O)cc12`, for which the pKB in assay [1] stood at 5.57; in assay [2], 5.35.
As to `CN(C)CCc1c(C(=O)NCc2cccc(NS(C)(=O)=O)c2)[nH]c2ccc(CCN3C(=O)NC(C)(C)C3=O)cc12`, the pKB is 5.67 in assay [1] and 4.51 in assay [4].
As to `CN(C)CCc1c(C(=O)NCc2cccc(N)c2)[nH]c2ccc(CCN3C(=O)NC(C)(C)C3=O)cc12`, the pKB in assay [1] stood at 6.52; in assay [4], 4.58.
`CN(C)CCc1c(C(=O)NCc2ccccc2N)[nH]c2ccc(CCN3C(=O)NC(c4ccccc4)(c4ccccc4)C3=O)cc12`: the pKB in assay [1] was determined as 6.31; in assay [4] it was 5.43.
On to `CNC(=O)c1[nH]c2ccc(CCN3C(=O)CNC3=O)cc2c1CCN(C)C`, for which the results for the pKB in assay [1] and in assay [2] were 5.94 and less than 5, respectively.
With `CN(C)CCc1c(C(=O)NCc2ccc(Cl)cc2)[nH]c2ccc(CCN3C(=O)NC(C)(C)C3=O)cc12`, the pKB in assay [1] came to 7.59; in assay [4] it was 5.86.
With `CN(C)CCc1c(C(=O)N(C)Cc2ccccc2)[nH]c2ccc(CCN3C(=O)NC(C)(C)C3=O)cc12`, the pKB came out at 5.8 in assay [1], 5.8 in assay [4] and 6.03 in assay [2].
`CN(C)CCc1c(C(=O)NCc2ccc(Cl)cc2)[nH]c2ccc(CCN3C(=O)CNC3=O)cc12`: the pKB worked out at 7.74 in assay [1], 6.47 in assay [4] and 6.31 in assay [2].
In turn, `CN(C)CCc1c(C(=O)NCC(N)=O)[nH]c2ccc(CCN3C(=O)NC(C)(C)C3=O)cc12` yielded a pKB in assay [1] of less than 5.
As to `COc1cccc(CNC(=O)c2[nH]c3ccc(CCN4C(=O)NC(C)(C)C4=O)cc3c2CCN(C)C)c1`, the pKB is 6.47 in assay [1] and 5.17 in assay [4].
The corresponding values for `CN(C)CCc1c(C(=O)NCc2ccccc2N)[nH]c2ccc(CCN3C(=O)NC(C)(c4ccccc4)C3=O)cc12` (stereo unspecified) are 6.65 and 5.21.
Consider `CC(=O)Nc1ccccc1CNC(=O)c1[nH]c2ccc(CCN3C(=O)NC(C)(C)C3=O)cc2c1CCN(C)C`, for which the pKB in assay [7] is 6.04; in assay [4], less than 5.
Take `CN(C)CCc1c(C(=O)NCc2ccccc2Cl)[nH]c2ccc(CCN3C(=O)NC(C)(C)C3=O)cc12`: the negative-log KB (pKB) in assay [1] amounted to 5.81; in assay [4] it was 5.35.
The corresponding values for `CN(C)CCc1c(C(=O)NCc2ccc(S(C)(=O)=O)cc2)[nH]c2ccc(CCN3C(=O)NC(C)(C)C3=O)cc12` are 5.91 and 4.52.
In the case of `Cc1ccc(CNC(=O)c2[nH]c3ccc(CCN4C(=O)NC(C)(C)C4=O)cc3c2CCN(C)C)cc1`, the results for the pKB in assay [1] and in assay [4] were 7 and 6, respectively.
For the molecule `CN(C)CCc1c(C(=O)NCc2ccccc2O)[nH]c2ccc(CCN3C(=O)NC(C)(C)C3=O)cc12`, the figures for the pKB in assay [1] and in assay [4] were 6.61 and 5, respectively.
In the case of `CN(C)CCc1c(C(=O)NCc2cccc(Cl)c2)[nH]c2ccc(CCN3C(=O)NC(C)(C)C3=O)cc12`, the negative logarithm of the KB (pKB) in assay [1] is 6.45.
For `CON(C)C(=O)c1[nH]c2ccc(CCN3C(=O)CNC3=O)cc2c1CCN(C)C`, the figures for the pKB in assay [1] and in assay [2] were 5.76 and 5.3, respectively.
